Results on three molecules are retold here after patent US6267968A, “MDP derivatives and conjugates having haematipoietic function stimulating activity, and compositions containing same” (Vacsyn S.A., priority 1995, dated 2001).

In assay [1] the test system is circulating myelocytes (HSC). As to the kind of experiment: Mobilization of HSC after combined oral treatment with AZT and Muradimetide (Example 4). The assay is classed as in vivo, mice. As for the experimental part:
Table 3 below and FIG. 11 show the effect of an oral treatment of mice with Muradimetide before, at the same time as or after AZT administered at 50 mg per kg, on the number of circulating myelocytes tested 24 hours after 4 daily administrations.
The mean number of circulating myelocytes before the treatment lies between 3 and 15×10^4 cells per ml in the 5 groups.
The "P-value" was calculated by the Mann Whitney U Rank test.

Assay [2] concerns circulating myelocytes. Nature of the assay: Comparison of oral Muradimetide with MDPA after intravenous AZT, myelocyte count (Example 10). As to conditions: AZT 40 mg per kg i.v. days 0-3; MDPA 25 mg per kg 4 hours before AZT. Format: in vivo, female Swiss mice. As for the experimental part:
In this experiment, female Swiss mice were treated intravenously with 40 mg per kg of AZT on days 0, 1, 2 and 3. Groups of 5 mice received on the same four days, and 4 hours before AZT, either physiological saline, or MDPA at a dose of 25 mg per kg or Muradimetide orally at a dose of 25 mg per kg. Myelocyte counts were carried out on days 0, 2, 3, 4 and 8. The asterisks above the histograms have the same meaning as in the previous diagrams.

Assay [3] deals with circulating neutrophils, leukocytes, monocytes and myelocytes. As to the kind of experiment: Comparison of Muradimetide and GM-CSF after intravenous AZT (Example 9). Format: in vivo, female Swiss mice. The conditions noted are these: AZT 40 mg per kg i.v. days 0-3. As for the experimental part: FIGS. 4, 5, 6 and 7 show the effect of a treatment of mice with Muradimetide or with mGM-CSF on the changes in the circulating neutrophils, in the circulating leukocytes or in the circulating monocytes or in the circulating myelocytes, respectively, after an intravenous administration of AZT.
Female Swiss mice were treated intravenously with 40 mg per kg of AZT on days 0, 1, 2 and 3. The groups of mice (5 per group) receive, 4 hours before AZT, either physiological saline, or Muradimetide at 25 mg per kg or mGM-CSF at 125 μg per kg intravenously. Counts are done on days 0, 2, 3, 4 and 8. The asterisks above the histograms indicate that there is a significant difference in the count compared to the values obtained before the treatment on day 0.

[4] abbreviates: Muradimetide 25 mg per kg or mGM-CSF 125 μg per kg i.v. 4 hours before.

Turning to `Cc1cn([C@H]2C[C@H](N=[N+]=[N-])[C@@H](CO)O2)c(=O)[nH]c1=O` [AZT, 3'-azido-3'-deoxythymidine, reference compound], the “effect on the mobilization of HSC (myelocyte count, FIG. 11)” value in assay [1] (MDM 25 mg/kg, AZT 50 mg/kg or mixture, oral, days 0-3 and 7-10 (2 weeks)) is recorded as “no effect”. For the same molecule, the “No. of circulating myelocytes” value in assay [1] (p.o., one compound alone at 0 h (AZT 50 mg/Kg or Muradimetide 25 mg/Kg), 24 hours after 4 daily administrations) was 6 ± 8 × 10^4 /ml.

Regarding `CC(=O)N[C@H]1C(O)O[C@H](CO)[C@@H](O)[C@@H]1O[C@H](C)C(=O)N[C@@H](C)C(=O)N[C@H](CCC(=O)O)C(=O)O` (stereo partly drawn) [MDPA, Nac--Mur--L--Ala--D--Glu], the “antimyelotoxic effect and mobilization of HSC in the blood circulation (myelocyte count, FIG. 8)” value in assay [2] is listed as “not occurring”.

B1: GM-CSF: recombinant mouse GM-CSF, lymphokine customarily used to stimulate myelocytes (protein, UniProt P01587 18-141, looked up)
Granulocyte-macrophage …: APTRSPITVTRPWKHVEAIKEALNLLDDMPVTLNEEVEVVSNEFSFKKLTCVQTRLKIFEQGLRGNFTKLKGALNMTASYYQTYCPPTPETDCETQVTTYADFIDSLKTFLTDIPFECKKPGQK
In the case of B1, in assay [3] (setting [4]), the “HSC in the blood (circulating myelocytes, FIG. 7)” value is “does not do so”; the “leukocyte and neutrophil counts” value is on record as “do not display an increase”. In assay [3] (mGM-CSF 125 μg per kg i.v. 4 hours before), the number of monocytes result is listed as “increase in the number of monocytes”.
